Converted amounts (≈) assume the structure as drawn. The source made the active and inactive calls. No cut-off for these calls is given here.

The subject of the first assay is Enterococcus faecium. Briefly: Antibacterial activity against Vanomycin-resistant Enterococcus faecium 15-6. Format: functional.
The MIC is the lowest concentration found to suppress growth. For the compound `O=C(Nc1ccc(OC(F)F)cc1)Nc1ccc(Cl)c(C(F)(F)F)c1`, the MIC is 21 µM (≈ 8 µg/mL).
Same read-out and setting: the figure for `O=C(Nc1ccc(C(F)(F)F)cc1)Nc1ccc(Cl)c(C(F)(F)F)c1` is 20.9 µM (≈ 8 µg/mL).

The next assay deals with Staphylococcus aureus. In words: Antibacterial activity against methicillin resistant Staphylococcus aureus 18-2. Type of assay: functional.
`CN(C(=O)Nc1ccc(Cl)c(C(F)(F)F)c1)c1cccc(Cl)c1F`: the MIC result is “inactive”.
For `O=C(Nc1ccc(OC(F)F)cc1)Nc1ccc(Cl)c(C(F)(F)F)c1`, the MIC was 5.25 µM (≈ 2 µg/mL).
`O=C(Nc1ccc(C(F)(F)F)cc1)Nc1ccc(Cl)c(C(F)(F)F)c1` gave an MIC of 10.4 µM (≈ 4 µg/mL).
The same measure, in the same setting: the entry for `CNC(=O)c1cc(Oc2ccc(NC(=O)N3CCN(c4ccc(Cl)c(C(F)(F)F)c4)C3=O)cc2)ccn1` is “inactive”.

Another assay has as its system Staphylococcus epidermidis. Briefly: Antibacterial activity against methicillin resistant Staphylococcus epidermidis 19-2. Format: functional.
With `CN(C(=O)Nc1ccc(Cl)c(C(F)(F)F)c1)c1cccc(Cl)c1F`, the MIC entry is “inactive”.
`O=C(Nc1ccc(OC(F)F)cc1)Nc1ccc(Cl)c(C(F)(F)F)c1` came in with an MIC of 10.5 µM (≈ 4 µg/mL).
On the same count and under the same terms, under `O=C(Nc1ccc(C(F)(F)F)cc1)Nc1ccc(Cl)c(C(F)(F)F)c1` stands 10.4 µM (≈ 4 µg/mL); under `CNC(=O)c1cc(Oc2ccc(NC(=O)N3CCN(c4ccc(Cl)c(C(F)(F)F)c4)C3=O)cc2)ccn1`, “inactive”.

For another assay, the system named is Staphylococcus aureus. Briefly: Antibacterial activity against methicillin sensitive Staphylococcus aureus 15. Type of assay: functional.
On to `CN(C(=O)Nc1ccc(Cl)c(C(F)(F)F)c1)c1cccc(Cl)c1F`, for which the MIC result is “inactive”.
The same measure, in the same setting: under `O=C(Nc1ccc(OC(F)F)cc1)Nc1ccc(Cl)c(C(F)(F)F)c1` stands 0.66 µM (≈ 0.251 µg/mL); under `O=C(Nc1ccc(C(F)(F)F)cc1)Nc1ccc(Cl)c(C(F)(F)F)c1`, 10.4 µM (≈ 4 µg/mL).
For the compound `CNC(=O)c1cc(Oc2ccc(NC(=O)N3CCN(c4ccc(Cl)c(C(F)(F)F)c4)C3=O)cc2)ccn1`, the MIC entry was “inactive”.

In a further assay the test system is Staphylococcus epidermidis. Briefly: Antibacterial activity against methicillin resistant Staphylococcus epidermidis 19-1. Format: functional.
Turning to `CN(C(=O)Nc1ccc(Cl)c(C(F)(F)F)c1)c1cccc(Cl)c1F`, the MIC result was “inactive”.
On the same count and under the same terms, the figure for `O=C(Nc1ccc(OC(F)F)cc1)Nc1ccc(Cl)c(C(F)(F)F)c1` is 5.25 µM (≈ 2 µg/mL).
Same read-out and setting: under `O=C(Nc1ccc(C(F)(F)F)cc1)Nc1ccc(Cl)c(C(F)(F)F)c1` stands 10.4 µM (≈ 4 µg/mL).
On the same count and under the same terms, the entry for `CNC(=O)c1cc(Oc2ccc(NC(=O)N3CCN(c4ccc(Cl)c(C(F)(F)F)c4)C3=O)cc2)ccn1` is “inactive”.

The test system of another assay is Enterococcus faecium. Briefly: Antibacterial activity against Vanomycin-resistant Enterococcus faecium ATCC 51559. Type of assay: functional.
`O=C(Nc1ccc(OC(F)F)cc1)Nc1ccc(Cl)c(C(F)(F)F)c1` returned a minimum inhibitory concentration (MIC) of 21 µM (≈ 8 µg/mL).
The compound `O=C(Nc1ccc(C(F)(F)F)cc1)Nc1ccc(Cl)c(C(F)(F)F)c1` registered an MIC of 41.8 µM (≈ 16 µg/mL).

Another assay concerns Staphylococcus aureus. In words: Antibacterial activity against vancomycin intermediate and methicillin resistant Staphylococcus aureus ATCC 700699. Type of assay: functional.
With `CN(C(=O)Nc1ccc(Cl)c(C(F)(F)F)c1)c1cccc(Cl)c1F`, the MIC result is “inactive”.
In turn, `O=C(Nc1ccc(OC(F)F)cc1)Nc1ccc(Cl)c(C(F)(F)F)c1` came in with an MIC of 0.66 µM (≈ 0.251 µg/mL).
On to `O=C(Nc1ccc(C(F)(F)F)cc1)Nc1ccc(Cl)c(C(F)(F)F)c1`, for which the MIC came out at 10.4 µM (≈ 4 µg/mL).
Same read-out and setting: the entry for `CNC(=O)c1cc(Oc2ccc(NC(=O)N3CCN(c4ccc(Cl)c(C(F)(F)F)c4)C3=O)cc2)ccn1` is “inactive”.

The test system of a further assay is Staphylococcus epidermidis. In words: Antibacterial activity against methicillin sensitive Staphylococcus epidermidis 17-13. Type of assay: functional.
As for `CN(C(=O)Nc1ccc(Cl)c(C(F)(F)F)c1)c1cccc(Cl)c1F`, the MIC entry was “inactive”.
As for `O=C(Nc1ccc(OC(F)F)cc1)Nc1ccc(Cl)c(C(F)(F)F)c1`, inhibition of growth (MIC) required 2.63 µM (≈ 1 µg/mL).
As for `O=C(Nc1ccc(C(F)(F)F)cc1)Nc1ccc(Cl)c(C(F)(F)F)c1`, the MIC is 20.9 µM (≈ 8 µg/mL).
Regarding `CNC(=O)c1cc(Oc2ccc(NC(=O)N3CCN(c4ccc(Cl)c(C(F)(F)F)c4)C3=O)cc2)ccn1`, the MIC result is “inactive”.

In another assay the test system is Staphylococcus aureus. In words: Antibacterial activity against methicillin sensitive Staphylococcus aureus ATCC 29213. Format: functional.
For `CN(C(=O)Nc1ccc(Cl)c(C(F)(F)F)c1)c1cccc(Cl)c1F`, the MIC result is “inactive”.
`O=C(Nc1ccc(OC(F)F)cc1)Nc1ccc(Cl)c(C(F)(F)F)c1` yielded an MIC of 10.5 µM (≈ 4 µg/mL).
Still for that read-out and setting: the figure for `O=C(Nc1ccc(C(F)(F)F)cc1)Nc1ccc(Cl)c(C(F)(F)F)c1` is 20.9 µM (≈ 8 µg/mL).
With `CNC(=O)c1cc(Oc2ccc(NC(=O)N3CCN(c4ccc(Cl)c(C(F)(F)F)c4)C3=O)cc2)ccn1`, the MIC result is “inactive”.

In another assay the test system is Enterococcus faecium. Briefly: Antibacterial activity against Vanomycin-resistant Enterococcus faecium ATCC 700221. Format: functional.
`O=C(Nc1ccc(OC(F)F)cc1)Nc1ccc(Cl)c(C(F)(F)F)c1`: the minimum inhibitory concentration (MIC) turned out to be 21 µM (≈ 8 µg/mL).
Same read-out and setting: under `O=C(Nc1ccc(C(F)(F)F)cc1)Nc1ccc(Cl)c(C(F)(F)F)c1` stands 41.8 µM (≈ 16 µg/mL).

Another assay concerns Staphylococcus aureus. In words: Antibacterial activity against methicillin resistant Staphylococcus aureus 20-11. Format: functional.
Turning to `CN(C(=O)Nc1ccc(Cl)c(C(F)(F)F)c1)c1cccc(Cl)c1F`, the MIC result was “inactive”.
In turn, `O=C(Nc1ccc(OC(F)F)cc1)Nc1ccc(Cl)c(C(F)(F)F)c1` had a minimal inhibitory concentration (MIC) of 0.66 µM (≈ 0.251 µg/mL).
For the compound `O=C(Nc1ccc(C(F)(F)F)cc1)Nc1ccc(Cl)c(C(F)(F)F)c1`, it took 20.9 µM (≈ 8 µg/mL) to inhibit growth (MIC).
Consider `CNC(=O)c1cc(Oc2ccc(NC(=O)N3CCN(c4ccc(Cl)c(C(F)(F)F)c4)C3=O)cc2)ccn1`, for which the MIC entry was “inactive”.

The test system of another assay is Enterococcus faecalis. Briefly: Antibacterial activity against Vanomycin-resistant Enterococcus faecalis ATCC 51575. Type of assay: functional.
With `O=C(Nc1ccc(OC(F)F)cc1)Nc1ccc(Cl)c(C(F)(F)F)c1`, the MIC entry was “inactive”.
`O=C(Nc1ccc(C(F)(F)F)cc1)Nc1ccc(Cl)c(C(F)(F)F)c1` yielded an MIC of 20.9 µM (≈ 8 µg/mL).

The test system of another assay is Staphylococcus epidermidis. Briefly: Antibacterial activity against methicillin sensitive Staphylococcus epidermidis ATCC 12228. Type of assay: functional.
`CN(C(=O)Nc1ccc(Cl)c(C(F)(F)F)c1)c1cccc(Cl)c1F`: the MIC result is “inactive”.
The compound `O=C(Nc1ccc(OC(F)F)cc1)Nc1ccc(Cl)c(C(F)(F)F)c1` registered a minimal inhibitory concentration (MIC) of 10.5 µM (≈ 4 µg/mL).
Same read-out and setting: under `O=C(Nc1ccc(C(F)(F)F)cc1)Nc1ccc(Cl)c(C(F)(F)F)c1` stands 20.9 µM (≈ 8 µg/mL); under `CNC(=O)c1cc(Oc2ccc(NC(=O)N3CCN(c4ccc(Cl)c(C(F)(F)F)c4)C3=O)cc2)ccn1`, “inactive”.

A further assay relates to Enterococcus faecalis. In words: Antibacterial activity against Vanomycin-resistant Enterococcus faecalis ATCC 51299. Format: functional.
As to `O=C(Nc1ccc(OC(F)F)cc1)Nc1ccc(Cl)c(C(F)(F)F)c1`, the MIC entry was “inactive”.
Same read-out and setting: the figure for `O=C(Nc1ccc(C(F)(F)F)cc1)Nc1ccc(Cl)c(C(F)(F)F)c1` is 41.8 µM (≈ 16 µg/mL).

Another assay concerns Staphylococcus aureus. Briefly: Antibacterial activity against methicillin sensitive Staphylococcus aureus ATCC 33591. Type of assay: functional.
In the case of `CN(C(=O)Nc1ccc(Cl)c(C(F)(F)F)c1)c1cccc(Cl)c1F`, the MIC entry is “inactive”.
The same measure, in the same setting: under `O=C(Nc1ccc(OC(F)F)cc1)Nc1ccc(Cl)c(C(F)(F)F)c1` stands 10.5 µM (≈ 4 µg/mL); under `O=C(Nc1ccc(C(F)(F)F)cc1)Nc1ccc(Cl)c(C(F)(F)F)c1`, 10.4 µM (≈ 4 µg/mL); under `CNC(=O)c1cc(Oc2ccc(NC(=O)N3CCN(c4ccc(Cl)c(C(F)(F)F)c4)C3=O)cc2)ccn1`, “inactive”.

For another assay, the system named is Staphylococcus aureus. In words: Antibacterial activity against vancomycin intermediate and methicillin resistant Staphylococcus aureus ATCC 700698. Format: functional.
For `CN(C(=O)Nc1ccc(Cl)c(C(F)(F)F)c1)c1cccc(Cl)c1F`, the MIC entry was “inactive”.
`O=C(Nc1ccc(OC(F)F)cc1)Nc1ccc(Cl)c(C(F)(F)F)c1`: inhibition of growth (MIC) required 1.31 µM (≈ 0.499 µg/mL).
`O=C(Nc1ccc(C(F)(F)F)cc1)Nc1ccc(Cl)c(C(F)(F)F)c1` showed an MIC of 20.9 µM (≈ 8 µg/mL).
Regarding `CNC(=O)c1cc(Oc2ccc(NC(=O)N3CCN(c4ccc(Cl)c(C(F)(F)F)c4)C3=O)cc2)ccn1`, the MIC entry was “inactive”.

A further assay concerns Staphylococcus aureus. In words: Antibacterial activity against methicillin sensitive Staphylococcus aureus 20-12. Type of assay: functional.
On to `CN(C(=O)Nc1ccc(Cl)c(C(F)(F)F)c1)c1cccc(Cl)c1F`, for which the MIC result was “inactive”.
Same read-out and setting: the figure for `O=C(Nc1ccc(OC(F)F)cc1)Nc1ccc(Cl)c(C(F)(F)F)c1` is 10.5 µM (≈ 4 µg/mL); for `O=C(Nc1ccc(C(F)(F)F)cc1)Nc1ccc(Cl)c(C(F)(F)F)c1` it is 20.9 µM (≈ 8 µg/mL).
Still for that read-out and setting: under `CNC(=O)c1cc(Oc2ccc(NC(=O)N3CCN(c4ccc(Cl)c(C(F)(F)F)c4)C3=O)cc2)ccn1` stands “inactive”.

For a further assay, the system named is Staphylococcus aureus. In words: Antibacterial activity against methicillin resistant Staphylococcus aureus ATCC 43300. Type of assay: functional.
Regarding `CN(C(=O)Nc1ccc(Cl)c(C(F)(F)F)c1)c1cccc(Cl)c1F`, the MIC result was “inactive”.
In turn, `O=C(Nc1ccc(OC(F)F)cc1)Nc1ccc(Cl)c(C(F)(F)F)c1` came in with an MIC of 10.5 µM (≈ 4 µg/mL).
Still for that read-out and setting: the figure for `O=C(Nc1ccc(C(F)(F)F)cc1)Nc1ccc(Cl)c(C(F)(F)F)c1` is 20.9 µM (≈ 8 µg/mL); for `CNC(=O)c1cc(Oc2ccc(NC(=O)N3CCN(c4ccc(Cl)c(C(F)(F)F)c4)C3=O)cc2)ccn1` it is “inactive”.

The values are drawn from ChEMBL document CHEMBL5223117, “Synthesis and biological evaluation of novel N, N'-diarylurea derivatives as potent antibacterial agents against MRSA” (Bioorg Med Chem Lett, 2022).
